According to US8835476B2, “Synthesis of novel antimicrobials” (priority 2005, dated 2014):

Experiments:
Assay type in all cases: cell-based
[1] = tested on: A. anitratus ATCC 19606; assay: Broth microdilution MIC, ATCC strains; conditions: Acinetobacter calcoaceticus, ATCC19606; A. anitratus ATCC 19606; read-out: MIC (growth inhibition, microdilution method)
How it was run: (§1)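 Tested per NCCLS M7-A6 broth microdilution with an inoculum of 5×10^5 CFU/ml and DMSO controls matching solvent levels. Panels were incubated 16 to 20 hours at 35° C. in ambient air, and the MIC was taken as the lowest concentration inhibiting visible growth.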

[2] = tested on: S. epidermidis ATCC 14990; assay: Broth microdilution MIC, ATCC strains; conditions: Staphylococcus epidermidis, ATCC14990; S. epidermidis ATCC 14990; read-out: MIC (growth inhibition, microdilution method)
How it was run: as §1

[3] = tested on: P. mirabilis ATCC 29245; assay: Broth microdilution MIC, ATCC strains; conditions: Proteus mirabilis, ATCC29245; P. mirabilis ATCC 29245; read-out: MIC (growth inhibition, microdilution method)
How it was run: as §1

[4] = tested on: K. pneumoniae ATCC 13883; assay: Broth microdilution MIC, ATCC strains; conditions: Klebsiella pneumoniae, ATCC13883; K. pneumoniae ATCC 13883; read-out: MIC (growth inhibition, microdilution method)
How it was run: as §1

[5] = tested on: S. simulans ATCC 27848; assay: Broth microdilution MIC, ATCC strains; conditions: Staphylococcus simulans, ATCC27848, read-out: MIC (growth inhibition, microdilution method)
How it was run: as §1

[6] = tested on: E. cloacae ATCC 23355; assay: Broth microdilution MIC, ATCC strains; conditions: Enterobacter cloacae, ATCC23355; E. cloacae ATCC 23355; read-out: MIC (growth inhibition, microdilution method)
How it was run: as §1

[7] = tested on: S. maltophilia ATCC 13637; assay: Broth microdilution MIC, ATCC strains; conditions: Stenotrophomonas maltophilia, ATCC13637; S. maltophilia ATCC 13637; read-out: MIC (growth inhibition, microdilution method)
How it was run: as §1

[8] = tested on: E. aerogenes ATCC 13048; assay: Broth microdilution MIC, ATCC strains; conditions: Klebsiella aerogenes, ATCC13048; E. aerogenes ATCC 13048; read-out: MIC (growth inhibition, microdilution method)
How it was run: as §1

[9] = tested on: S. saprophyticus ATCC 15305; assay: Broth microdilution MIC, ATCC strains; conditions: Staphylococcus saprophyticus, ATCC15305; S. saprophyticus ATCC 15305; read-out: MIC (growth inhibition, microdilution method)
How it was run: as §1

[10] = tested on: S. aureus ATCC 29213; assay: Broth microdilution MIC, ATCC strains; conditions: Staphylococcus aureus, ATCC29213, S. aureus ATCC 29213; read-out: MIC (growth inhibition, microdilution method)
How it was run: as §1

[11] = tested on: S. warneri ATCC 27836; assay: Broth microdilution MIC, ATCC strains; conditions: Staphylococcus warneri, ATCC27836; S. warneri ATCC 27836; read-out: MIC (growth inhibition, microdilution method)
How it was run: as §1

[12] = tested on: P. rettgeri CAP; assay: Broth microdilution MIC, reference strains; conditions: Providencia rettgeri; P. rettgeri (CAP in Table 1); read-out: MIC (growth inhibition, microdilution method)
How it was run: as §1

[13] = tested on: C. koseril clinical isolates; assay: Broth microdilution MIC, clinical isolate strains (NAUTICA); conditions: Table 4B; each table row is one clinical isolate; unit assumed
How it was run: as §1

[14] = tested on: S. marcescens clinical isolates; assay: as above; conditions: Table 4B; each table row is one clinical isolate; unit assumed
How it was run: as §1

[15] = tested on: P. stuartii clinical isolates; assay: as above; conditions: Table 4B; each table row is one clinical isolate; unit assumed
How it was run: as §1

[16] = tested on: C. amalonaticus clinical isolates; assay: as above; conditions: Table 4B; each table row is one clinical isolate; unit assumed
How it was run: as §1

[17] = tested on: E. coli clinical isolates; assay: as above; conditions: Table 4B; each table row is one clinical isolate; unit assumed
How it was run: as §1

[18] = tested on: P. mirabilis clinical isolates; assay: as above; conditions: Table 4B; each table row is one clinical isolate; unit assumed
How it was run: as §1

[19] = tested on: P. vulgaris clinical isolates; assay: as above; conditions: Table 4B; each table row is one clinical isolate; unit assumed
How it was run: as §1

[20] = tested on: M. morganii clinical isolates; assay: as above; conditions: Table 4B; each table row is one clinical isolate; unit assumed
How it was run: as §1

[21] = tested on: P. retgerri clinical isolates; assay: as above; conditions: Table 4B; each table row is one clinical isolate; unit assumed
How it was run: as §1

[22] = tested on: C. freundii clinical isolates; assay: as above; conditions: Table 4B; each table row is one clinical isolate; in µg/mL (unit assumed)
How it was run: as §1

[23] = tested on: K. pneumoniae clinical isolates; assay: as above; conditions: Table 4B; each table row is one clinical isolate; unit assumed
How it was run: as §1

[24] = tested on: S. liquifaciens clinical isolates; assay: as above; conditions: Table 4B; each table row is one clinical isolate; unit assumed
How it was run: as §1

[25] = tested on: E. cloacae clinical isolates; assay: as above; conditions: Table 4B; each table row is one clinical isolate; unit assumed
How it was run: as §1

[26] = tested on: E. aerogenes clinical isolates; assay: as above; conditions: Table 4B; each table row is one clinical isolate; unit assumed
How it was run: as §1

[27] = tested on: K. oxytoca clinical isolates; assay: as above; conditions: Table 4B; each table row is one clinical isolate; unit assumed
How it was run: as §1

[28] = tested on: B. cepacia clinical isolates; assay: as above; conditions: Table 4B; each table row is one clinical isolate; unit assumed
How it was run: as §1

[29] = tested on: S. maltophilia clinical isolates; assay: as above; conditions: Table 4B; each table row is one clinical isolate; unit assumed
How it was run: as §1

[30] = tested on: A. baumanii clinical isolates; assay: as above; conditions: Table 4B; each table row is one clinical isolate; unit assumed
How it was run: as §1

Structure (SMILES)	MIC [1] [µg/mL]	MIC [2] [µg/mL]	MIC [3] [µg/mL]	MIC [4] [µg/mL]	MIC [5] [µg/mL]	MIC [6] [µg/mL]	MIC [7] [µg/mL]	MIC [8] [µg/mL]	MIC [9] [µg/mL]	MIC [10] [µg/mL]	MIC [11] [µg/mL]	MIC [12] [µg/mL]	MIC, C. KOSERI [13] [µg/mL]	MIC, S. MARCESCENS [14] [µg/mL]	MIC, P. STUARTII [15] [µg/mL]	MIC, C. AMALONATICUS [16] [µg/mL]	MIC, E. COLI [17] [µg/mL]	MIC, P. MIRABILIS [18] [µg/mL]	MIC, P. VULGARIS [19] [µg/mL]	MIC, M. MORGANII [20] [µg/mL]	further results
O=C(O)c1sc(-c2ccc(F)cc2)cc1-c1nnn[nH]1 [DNM-141, 5-(4-Fluoro-phenyl)-3-(1H-tetrazol-5-yl)-thiophene-2-carboxylic acid]	> 16	> 16	> 16	> 16	> 16	> 16	> 16	> 16	> 16	> 16	> 16	> 16	> 16	> 16	> 16	> 16	> 16	> 16	> 16	> 16	MIC, P. RETTGERI [21]: > 16 µg/mL; MIC, C. FREUNDII [22]: >16; MIC, K. PNEUMONIAE [23]: > 16 µg/mL; MIC, S. LIQUEFACIENS [24]: > 16 µg/mL; MIC, E. CLOACAE [25]: > 16 µg/mL; MIC, E. AEROGENES [26]: > 16 µg/mL; MIC, K. OXYTOCA [27]: > 16 µg/mL; MIC, B. CEPACIA [28]: > 16 µg/mL; MIC, S. MALTOPHILIA [29]: > 16 µg/mL; MIC, A. BAUMANII [30]: > 16 µg/mL
Cn1nnc(-c2cc(-c3ccc(F)cc3)sc2C(=O)O)n1 [DNM-142, 5-(4-Fluoro-phenyl)-3-(2-methyl-2H-tetrazol-5-yl)-thiophene-2-carboxylic acid]	> 16	> 16	> 16	> 16	> 16	> 16	> 16	> 16	> 16	> 16	> 16	> 16	> 16	> 16	> 16	> 16	> 16	> 16	> 16	> 16	MIC, P. RETTGERI [21]: > 16 µg/mL; MIC, C. FREUNDII [22]: >16; MIC, K. PNEUMONIAE [23]: > 16 µg/mL; MIC, S. LIQUEFACIENS [24]: > 16 µg/mL; MIC, E. CLOACAE [25]: > 16 µg/mL; MIC, E. AEROGENES [26]: > 16 µg/mL; MIC, K. OXYTOCA [27]: > 16 µg/mL; MIC, B. CEPACIA [28]: > 16 µg/mL; MIC, S. MALTOPHILIA [29]: > 16 µg/mL; MIC, A. BAUMANII [30]: > 16 µg/mL
Cn1nnnc1-c1cc(-c2ccc(F)cc2)sc1C(=O)O [DNM-143, 5-(4-Fluoro-phenyl)-3-(1-methyl-1H-tetrazol-5-yl)-thiophene-2-carboxylic acid]	> 8	> 8	> 8	> 8	> 8	> 8	> 8	> 8	> 8	> 8	> 8	> 8	> 8	> 8	> 8	> 8	> 8	> 8	> 8	> 8	MIC, P. RETTGERI [21]: > 8 µg/mL; MIC, C. FREUNDII [22]: >8; MIC, K. PNEUMONIAE [23]: > 8 µg/mL; MIC, S. LIQUEFACIENS [24]: > 8 µg/mL; MIC, E. CLOACAE [25]: > 8 µg/mL; MIC, E. AEROGENES [26]: > 8 µg/mL; MIC, K. OXYTOCA [27]: > 8 µg/mL; MIC, B. CEPACIA [28]: > 8 µg/mL; MIC, S. MALTOPHILIA [29]: > 8 µg/mL; MIC, A. BAUMANII [30]: > 8 µg/mL
COC(=O)c1sc(-c2ccc(F)cc2)cc1-c1nnn(C)n1 [DNM-144, 5-(4-fluoro-phenyl)-3-(2-methyl-2H-tetrazol-5-yl)-thiophene-2-carboxylic acid methyl ester]	> 8	> 8	> 8	> 8	> 8	> 8	> 8	> 8	> 8	> 8	> 8	> 8	> 8	> 8	> 8	> 8	> 8	> 8	> 8	> 8	MIC, P. RETTGERI [21]: > 8 µg/mL; MIC, C. FREUNDII [22]: >8; MIC, K. PNEUMONIAE [23]: > 8 µg/mL; MIC, S. LIQUEFACIENS [24]: > 8 µg/mL; MIC, E. CLOACAE [25]: > 8 µg/mL; MIC, E. AEROGENES [26]: > 8 µg/mL; MIC, K. OXYTOCA [27]: > 8 µg/mL; MIC, B. CEPACIA [28]: > 8 µg/mL; MIC, S. MALTOPHILIA [29]: > 8 µg/mL; MIC, A. BAUMANII [30]: > 8 µg/mL
COC(=O)c1sc(-c2ccc(F)cc2)cc1-c1nnnn1C [DNM-145, 5-(4-Fluoro-phenyl)-3-(1-methyl-1H-tetrazol-5-yl)-thiophene-2-carboxylic acid methyl ester]	> 4	> 4	> 4	> 4	> 4	> 4	> 4	> 4	> 4	> 4	> 4	> 4	> 4	> 4	> 4	> 4	> 4	> 4	> 4	> 4	MIC, P. RETTGERI [21]: > 4 µg/mL; MIC, C. FREUNDII [22]: >4; MIC, K. PNEUMONIAE [23]: > 4 µg/mL; MIC, S. LIQUEFACIENS [24]: > 4 µg/mL; MIC, E. CLOACAE [25]: > 4 µg/mL; MIC, E. AEROGENES [26]: > 4 µg/mL; MIC, K. OXYTOCA [27]: > 4 µg/mL; MIC, B. CEPACIA [28]: > 4 µg/mL; MIC, S. MALTOPHILIA [29]: > 4 µg/mL; MIC, A. BAUMANII [30]: > 4 µg/mL
